US10220025B1, “Self-emulsifying formulation of CARP-1 functional mimetics” (Florida A&M University, priority 2016, dated 2019)
Like-named read-outs stand apart in the source and are kept apart here.

How the values were obtained:
[1] = tested on: TNBC and NSCLC cells; details: cited from earlier work
[2] = tested on: MDA-MB-468 TNBC cells, wild type; test: MTT viability assay, parental MDA-MB-468; type: cell-based, human; details: for inhibition of viability compared with CFM-4: 20 μM, 24 h, FIG. 3A
Method: (§2) In vitro inhibition of cell growth was assessed by MTT (3-[4, 5-dimethyltiazol-2-yl]-2.5-diphenyl tetrazolium bromide) reagent. Cells (5×10^3) were seeded in a 96-well culture plate and subsequently treated with respective agents at different concentrations as mentioned. Control cells were treated with 0.1% DMSO in culture medium. After treatment, the cells were incubated with 1 mg/ml of MTT reagent at 37° C. for 2-4 hours and then MTT was removed and 50 μL of DMSO was added, followed by colorimetric analysis using a multi-label plate reader at 560 nm (Victor3; PerkinElmer, Wellesley, Mass., USA).

[3] = tested on: HeLa cervical cancer cells; test: MTT viability assay, HeLa; type: cell-based; details: 20 μM; 24 h; FIG. 3A
Text: The current inventors' previous studies have indicated cancer cell growth inhibitory properties of CFMs in particular CFM-4 and CFM-5 [Puliyappadamba et al.]. […] J. Biomed. Nanotechnol. 2015; 11:1608-1627]. […] J. Biomed. Nanotechnol. 2015; 11:1608-1627]. On the basis of these findings, it was speculated that solubility and/or potency of the CFM-4 scaffold could be improved for its utility as a novel anti-TNBC molecule. To address this possibility, twelve (12) additional analogs of CFM-4 (Table 2) were synthesized using medicinal chemistry based structure activity relationship (SAR) studies. Each of the analog was suspended in DMSO, and their potency was evaluated in cell culture studies utilizing HeLa cervical cancer, MDA-MB-468 TNBC, and H2461 malignant pleural mesothelioma (MPM) cells by MTT based assays. […] Moreover, a 10 μM dose of CFM-4 inhibited MDA-MB-231 and MDA-MB-468 viabilities by ˜30% and 45%, respectively.

[4] = tested on: TNBC cells; test: MTT viability assay, parental TNBC cells (lines not singled out); type: cell-based
Method: as §2

[5] = tested on: Cisplatin-resistant (Cis-R) MDA-MB-468 sublines; test: MTT viability assay, Cisplatin-resistant MDA-MB-468 sublines; type: cell-based, human
Method: (§1) Human TNBC MDA-MB-468 and MDA-MB-231, and mouse TNBC 4T1 cells were cultured in the chronic presence (>10 months) of Doxorubicin. The parental, wild-type cells were initially treated with 200 nM Doxorubicin for 2-3 weeks, followed by escalation to 400 nM, 1 μM, and 2 μM doses over a period of 3-4 weeks for each dose till resistance developed and the cells became well adapted to growth in […] of Doxorubicin for their routine culture. In the case of Cisplatin however, the human TNBC MDA-MB-468 and MDA-MB-231 were initially cultured in continuous presence of 1 μM Cisplatin for 3-4 weeks, and the dose was escalated to 1.5 μM and 3 μM over periods of 3-4 weeks for each dose till resistance developed and cells became adapted to routine culture in 3 μM dose. Subsequent, routine maintenance of the resistant cells in the presence of the respective drug was continued and multiple, resistant sublines for each of the TNBC cells were isolated and characterized for their growth inhibitory (GI)50 dose of respective therapeutic by the MTT-based viability assays as below.

[6] = tested on: MDA-MB-231 TNBC cells, wild type; test: MTT viability assay, parental MDA-MB-231; type: cell-based, human; details: 72 h; Wild type
Method: as §2

[7] = tested on: Cisplatin-resistant (Cis-R) MDA-MB-231 sublines; test: MTT viability assay, Cisplatin-resistant MDA-MB-231 sublines; type: cell-based, human
Method: as §1

[8] = tested on: parental and drug-resistant human TNBC cells; details: human, 12 h
Method: Control cells were treated with 0.1% DMSO in culture medium.

[9] = tested on: 4T1 TNBC cells, wild type; test: MTT viability assay, parental 4T1; type: cell-based, mouse; details: FIG. 10; single agent
Method: as §2

SMILES: O=C1N(Cc2cccc3ccccc23)c2ccccc2C12NN=C(c1ccccc1)S2 (stereo not drawn) [CFM-4.6]
- growth of TNBC and NSCLC cells [1]: inhibited growth

SMILES: O=C1N(Cc2ccc3ccccc3c2)c2ccccc2C12NN=C(c1ccccc1)S2 (stereo not drawn) [CFM-4.8]
- inhibition of viability compared with CFM-4 [2]: greater inhibition of viability

SMILES: COc1ccc2c(c1)C1(NN=C(c3ccccc3)S1)C(=O)N2Cc1ccccc1Cl (stereo not drawn) [CFM-4.11]
- inhibition of viability compared with CFM-4 [2]: greater inhibition of viability

SMILES: COc1cccc(C2=NNC3(S2)C(=O)N(Cc2ccccc2Cl)c2ccccc23)c1 (stereo not drawn) [CFM-4.17]
- inhibition of viability compared with CFM-4 [3]: greater inhibition of viability
- inhibition of viability compared with CFM-4 [2]: greater inhibition of viability
- activity relative to parent compound CFM-4 or other analogs ([4]; SAR screen of twelve analogs): superior

SMILES: N.N.[Cl][Pt][Cl] [Cisplatin]
- GI50 ([2]; 72 h, Wild type): ~1.65 µM
- GI50 ([4]; 72 h treatment period, read-out: GI50 doses, both the parental TNBC cell lines): ~1.65 µM
- GI50 ([4]; parental cells, read-out: GI50 dose, parental cells): 1.65 µM
- GI50 ([5]; 72 h, Cis-R Clone 1-2, read-out: GI50): ~6.6 µM
- GI50 ([5]; 72 h, Cis-R Clone 3, read-out: GI50): ~12 µM
- GI50 ([5]; 72 h, Cis-R Clones 4-6, read-out: GI50): ~15 µM
- GI50 dose higher than wild-type, parental cells ([5]; cisplatin-resistant MDA-MB-468 vs parental): 4-9 fold
- GI50 ([5]; read-out: GI50 dose, Cisplatin-resistant MDA-MB-468 sublines): 6 to 15 µM
- GI50 [6]: ~1.65 µM
- GI50 ([7]; 72 h, Cis-R Clones 1-6, read-out: GI50): ≥ 150 µM
- GI50 dose higher than wild-type, parental counterparts ([7]; cisplatin-resistant MDA-MB-231 vs parental): ≥ 90 fold
- GI50 ([7]; read-out: GI50 dose, Cisplatin-resistant MDA-MB-231 sublines): ≥ 150 µM

SMILES: Cc1nc(Nc2ncc(C(=O)Nc3c(C)cccc3Cl)s2)cc(N2CCN(CCO)CC2)n1 [Dasatinib]
- loss of viability, single agent [8]: 20-40%
- reduction / loss of viability [9]: ~60%

SMILES: O=C1NC(=O)[C@@H](c2cn3c4c(cccc24)CCC3)[C@@H]1c1c[nH]c2ccccc12 [Tivatinib]
- loss of viability, single agent [8]: 20-40%
